Literature values as cited in patent US20170065526A1, “SOLID DOSAGE FORM OF RIVAROXABAN AND METHODS FOR MAKING THE SAME” (priority 2015, published 2017).
Values after ≈ are worked out from the molar mass of the structure shown.

Conditions: relatively poor solubility, background statement

Question: With `O=C(NC[C@H]1CN(c2ccc(N3CCOCC3=O)cc2)C(=O)O1)c1ccc(Cl)s1` [rivaroxaban, (S)-5-chloro-N-{[2-oxo-3-[4-(3-oxomorpholin-4-yl)phenyl]oxazolidin-5-yl]methyl}thiophene-2-carboxamide] as the compound, how does the solubility read?
Answer: ~7 µg/mL (≈ 16.1 µM)
